Patent publication US20070160684A1, “Methods for increasing cancer cell chemosensitivity” (priority 2005, published 2007)

Key:
[1] = system: PUMA and NOXA transcriptional activation; experiment: Quantitative real-time RT-PCR of PUMA and NOXA; assay type: cell-based; conditions: 2 μM Dox
[2] = system: caspase-3 and p53; experiment: Western analysis of caspase-3 cleavage and p53 levels; assay type: cell-based; conditions: Dox
[3] = system: H2AX phosphorylation; experiment: Western analysis of H2AX phosphorylation in pEBS7, YZ5, and MO59J cells; assay type: cell-based; conditions: 2 μM Dox for 2 hours
Protocol: pEBS7, YZ5, and MO59J cells were treated with 2 μM Dox for 2 hours, at which point cell lysates were removed and subjected to Western analyses using anti-phospho-H2AX antibodies. Control Western analyses were performed using monoclonal anti-actin antibodies.

[4] = in a subject; cited from earlier work
[5] = system: H2AX phosphorylation; experiment: Western analysis of H2AX phosphorylation in U2OS.GK41 cells; assay type: cell-based; conditions: 2 μM Dox, 1 hour and 2 hours, cells expressing ATR-kd
Protocol: For experiments using U2OS.GK41 cells, cells were pre-treated with 1 μg/ml doxycycline for 48 […] to induce expression of ATR-kd. Non-induced control cells were pre-treated with vehicle only. Induced and non-induced cells were then treated with 2 μM Dox. At 1 hour and 2 hours after Dox treatment, cell lysates were removed and subjected to Western analyses using anti-phospho-H2AX or anti-actin antibodies.

[6] = system: HMGA2/Ku70/Ku80 complex; experiment: Co-immunoprecipitation after Dox treatment; assay type: cell-based
[7] = system: ATM Ser1981 phosphorylation; experiment: Western analysis of ATM phosphorylation in pEBS7 and YZ5 cells; assay type: cell-based; conditions: 2 μM Dox
Protocol: ATM-deficient pEBS7 cells and ATM-proficient YZ5 cells were maintained in DMEM and 10% FBS with 100 μg/ml hygromycin at 37° C. with 5% CO2. pEBS7 and YZ5 are stable clones derived from ATM-deficient fibroblasts (AT22IJE-T) with empty vector and Flag-tagged wild-type ATM, respectively (Li 2000). Cells were treated with 2 μM Dox or vehicle only. At various time points after treatment, equal amounts of protein lysates were removed and subjected to Western analyses using monoclonal anti-phospho-ATM antibodies (Ser1981) (Upstate Cell Signaling, Waltham, Mass.).

[8] = system: pSer15-p53 and pThr68-Chk2; experiment: Western analysis of p53 and Chk2 phosphorylation in parental and engineered HeLa cells; assay type: cell-based; conditions: Dox (2 μM), HeLa/HMGA2 and HeLa/HMGA2(2K/R) cells
Protocol: pSer15-p53 and pThr68-Chk2 profiles following exposure to Dox in parental and engineered HeLa cells were assessed. […] Intriguingly, there was a noticeable accumulation of pSer15-p53 at 6 hours post-treatment and attenuation of pThr68-Chk2 at 2 hours post-treatment in HeLa/HMGA2 cells, compared with Dox-treated HeLa and HeLa/HMGA2(2K/R) cells. Together with results set forth in Example 25, HMGA2 appears to disrupt DNA damage response by interfering with the activation of DNA-PKcs, ATM and Chk2.

[9] = system: p53 Ser-15 and Chk2 Thr-68 phosphorylation; experiment: Western analysis of p53 and Chk2 phosphorylation in MO59J and MO59K cells; assay type: cell-based
Protocol: To establish the role of DNA-PK in Dox-induced p53 and Chk2 phosphorylation, MO59J (DNA-PKcs-deficient) and MO59K (DNA-PKcs-proficient) cells were treated with Dox, and their p53 and Chk2 phosphorylation profiles were probed.

[10] = system: HS578T, HCC1419, and CHO cells; experiment: MTT cell viability assay; conditions: Dox 0 to 2.5 μM
[11] = system: ATM Ser1981 phosphorylation; experiment: Western analysis of ATM phosphorylation in Pa-4 and Pa-4/HMGA2 cells; assay type: cell-based; conditions: 2 μM Dox
[12] = system: HepG2, Hep3B, and CL48 cells; experiment: MTT cell viability assay; assay type: cell-based; conditions: increasing concentrations, 72 hours
Protocol: MTT assays were conducted as described above to assess the effect of HGMA2 expression on the sensitivity of HepG2, Hep3B, and CL48 cells to Dox or cisplatin. […] To exclude the possibility that HMGA2 increases chemosensitization in general, Taxol-induced cell growth inhibition was measured in HeLa and HeLa/HMGA2 cells. Taxol is a microtubule stabilizing agent (Slichenmyer 1991) commonly used as a chemotherapeutic agent for combating breast and ovarian cancers.

[13] = system: H2AX phosphorylation; experiment: Western analysis of H2AX phosphorylation in HS578T and HCC1419 cells; assay type: cell-based; conditions: 2 μM Dox
Protocol: (§1) NU7026 (Calbiochem, San Diego, Calif.) was dissolved in DMSO at 5 mM and stored at −20° C. […] Cell lysates were removed and subjected to Western analyses using monoclonal anti-phospho-H2AX (Ser 139) antibodies. Control Western analyses were performed using monoclonal anti-actin antibodies.
Experiments were repeated using HS578T and HCC1419 cells treated with 2 μM rather than 1 μM Dox.

[14] = system: ATM phosphorylation; experiment: Western analysis of ATM phosphorylation in HeLa and HeLa/HMGA2 cells; assay type: cell-based; conditions: Dox
Protocol: (§2) To ascertain whether HMGA2 effects Dox-induced ATM signaling activation, phosphorylation of ATM Ser1981 and H2AX Ser139 was assayed in the presence and absence of Dox (2 μM in ATM assays, 1 μM in H2AX assays). At various timepoints after Dox treatment, cell lysates were removed and subjected to Western analyses using monoclonal anti-phospho-ATM antibodies (Ser1981), polyclonal anti-ATM antibodies (Santa Cruz Biotechnology, Santa Cruz, Calif.), monoclonal anti-phospho-H2AX antibodies ([…]) (Upstate Cell Signaling), or anti-H2AX antibodies. Control Western analyses were performed using monoclonal anti-actin antibodies. […] HeLa and HeLa/HMGA2 cells
The effect of HMGA2 on ATM and H2AX phosphorylation in HeLa cells was measured using the protocol described above. […] As for H2AX, results were similar to those observed in Pa-4 cells.

[15] = system: H2AX Ser139 phosphorylation; experiment: Western analysis of H2AX phosphorylation in Pa-4 and Pa-4/HMGA2 cells; assay type: cell-based; conditions: 1 μM Dox
Protocol: as §2, §1

[16] = system: Pa-4 and Pa-4/HMGA2 cells; experiment: MTT cell viability assay; assay type: cell-based; conditions: Dox 0-7 μM or irinotecan 0-50 μM
[17] = 10 μM Dox for 30 minutes, HeLa/HMGA2 cells

COc1cccc2c1C(=O)c1c(O)c3c(c(O)c1C2=O)C[C@@](O)(C(=O)CO)C[C@@H]3O[C@H]1C[C@H](N)[C@H](O)[C@H](C)O1 [Dox, doxorubicin]
transcriptional activation of PUMA and NOXA ([1]; CL48 and HepG2 cells): marked transcriptional activation of PUMA and NOXA at 8 hours after treatment | transcriptional activation of PUMA and NOXA ([1]; Hep3B cells and HeLa cells): modest induction if any | caspase-3 cleavage fragment [2]: increased in HeLa/HMGA2, HepG2 and Hs578T cells | steady-state p53 levels ([2]; HeLa, HeLa/HMGA2, CL48, and HepG2 cells): increased steady-state p53 levels | induction of H2AX phosphorylation ([3]; YZ5 cells and MO59J cells): substantial increase in H2AX phosphorylation following Dox treatment | induction of H2AX phosphorylation ([3]; pEBS7 cells): lack of Dox-mediated induction | maximum cumulative dosage limited by side effects [4]: 450 to 550 mg | induction of H2AX phosphorylation [5]: delay in Dox-mediated induction of H2AX phosphorylation | DNA-PKcs in the immunocomplexes of Ku80 [6, 17]: enriched the amount of DNA-PKcs detected in the immunocomplexes of Ku80 | anti-Ku80-immunoprecipitated HMGA2 [6, 17]: decrease in anti-Ku80-immunoprecipitated HMGA2 | interaction of endogenous HMGA2 with Ku80/Ku70 ([6]; Dox, Hs578T cells): this interaction was disrupted upon Dox-treatment | ATM Ser1981 phosphorylation [7]: detected between 0.5 and 2 hours after Dox treatment | pSer15-p53 and pThr68-Chk2 signals [8]: caused induction of pSer15-p53 and pThr68-Chk2 signals | p53 phosphorylation at Ser-15 ([9]; Dox, MO59J and MO59K cells): robust p53 phosphorylation at Ser-15 | Chk2 phosphorylation at Thr-68 ([9]; MO59J cells, 2 hours post-Dox treatment): barely detectable | sensitivity to growth inhibition, HS578T versus HCC1419 and CHO ([10]; 72 hours): HS578T cells were substantially more sensitive to Dox-mediated growth inhibition than the other two cell types | cell viability ([10]; 72 hours after treatment): decreased cell viability in a dose-dependent manner in all three cell types | ATM phosphorylation, Pa-4 versus Pa-4/HMGA2 [11]: roughly equal in Pa-4 and Pa-4/HMGA2 cells | ATM phosphorylation ([11]; Pa-4 cells): rapid phosphorylation of ATM | sensitivity, HepG2 and Hep3B versus CL48 [12]: greater sensitivity to both Dox and cisplatin than HMGA2-underexpressing CL48 cells | H2AX phosphorylation ([13]; HCC1419 cells): induced H2AX phosphorylation | H2AX phosphorylation ([13]; HS578T cells): no increase in H2AX phosphorylation following Dox treatment | ATM phosphorylation ([14]; HeLa cells): rapid phosphorylation of ATM in HeLa cells | ATM phosphorylation ([14]; HeLa/HMGA2 cells): no ATM phosphorylation was observed | induction of H2AX phosphorylation ([15]; Pa-4/HMGA2 cells): ablation of Dox-mediated induction of H2AX phosphorylation | H2AX phosphorylation ([15]; Pa-4 cells): rapid phosphorylation | difference in decrease of viability between Pa-4/HMGA2 and Pa-4 cells ([16]; 72 hours): much larger in Pa-4/HMGA2 cells than it was in Pa-4 cells | cell viability / growth inhibition ([16]; 72 hours after treatment): decreased cell viability in a dose-dependent manner in both Pa-4 and Pa-4/HMGA2 cells
